{"source": "PubChem BioAssay (NCI)", "assay_in_all_cases": "NCI tumour cell line growth inhibition, 48 h", "key": {"[1]": {"test_system": "786-0 renal"}, "[2]": {"test_system": "A498 renal"}, "[3]": {"test_system": "A549 NSCLC"}, "[4]": {"test_system": "ACHN renal"}, "[5]": {"test_system": "BT-549 breast"}, "[6]": {"test_system": "CAKI-1 renal"}, "[7]": {"test_system": "CCRF-CEM leukemia"}, "[8]": {"test_system": "COLO 205 colon"}, "[9]": {"test_system": "DU-145 prostate"}, "[10]": {"test_system": "EKVX NSCLC"}, "[11]": {"test_system": "HCC-2998 colon"}, "[12]": {"test_system": "HCT-116 colon"}, "[13]": {"test_system": "HCT-15 colon"}, "[14]": {"test_system": "HOP-62 NSCLC"}, "[15]": {"test_system": "HOP-92 NSCLC"}, "[16]": {"test_system": "HS 578T breast"}, "[17]": {"test_system": "HT29 colon"}, "[18]": {"test_system": "IGROV1 ovarian"}, "[19]": {"test_system": "K-562 leukemia"}, "[20]": {"test_system": "KM12 colon"}, "[21]": {"test_system": "LOX IMVI melanoma"}, "[22]": {"test_system": "M14 melanoma"}, "[23]": {"test_system": "MALME-3M melanoma"}, "[24]": {"test_system": "MCF7 breast"}, "[25]": {"test_system": "MDA-MB-231 breast"}, "[26]": {"test_system": "MDA-MB-435"}, "[27]": {"test_system": "MDA-MB-468 breast"}, "[28]": {"test_system": "MOLT-4 leukemia"}}, "note": "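Compound exposure: 48 hours, 5 concentrations, 96-well plates. The concentration for 50% growth inhibition is given as GI50. The concentration for full growth arrest is given as TGI.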", "data": [{"compound": "COc1ccc(C(=O)/C=C/c2cccc(Br)c2)cc1S(N)(=O)=O", "values": [{"measurement": "GI50", "setting": "[1]", "result": 1.63, "unit": "µM"}, {"measurement": "TGI", "setting": "[1]", "result": 3.33, "unit": "µM"}, {"measurement": "GI50", "setting": "[2]", "result": 13.8, "unit": "µM"}, {"measurement": "TGI", "setting": "[2]", "result": 27, "unit": "µM"}, {"measurement": "GI50", "setting": "[3]", "result": 2.82, "unit": "µM"}, {"measurement": "TGI", "setting": "[3]", "result": 10.2, "unit": "µM"}, {"measurement": "GI50", "setting": "[4]", "result": 1.67, "unit": "µM"}, {"measurement": "TGI", "setting": "[4]", "result": 3.11, "unit": "µM"}, {"measurement": "GI50", "setting": "[5]", "result": 1.51, "unit": "µM"}, {"measurement": "TGI", "setting": "[5]", "result": 3.46, "unit": "µM"}, {"measurement": "GI50", "setting": "[6]", "result": 2.28, "unit": "µM"}, {"measurement": "TGI", "setting": "[6]", "result": 7.89, "unit": "µM"}, {"measurement": "GI50", "setting": "[7]", "result": 2.54, "unit": "µM"}, {"measurement": "TGI", "setting": "[7]", "result": 6.12, "unit": "µM"}, {"measurement": "GI50", "setting": "[8]", "result": 1.92, "unit": "µM"}, {"measurement": "TGI", "setting": "[8]", "result": 3.51, "unit": "µM"}, {"measurement": "GI50", "setting": "[9]", "result": 3.56, "unit": "µM"}, {"measurement": "TGI", "setting": "[9]", "result": 12.8, "unit": "µM"}, {"measurement": "GI50", "setting": "[10]", "result": 5.24, "unit": "µM"}, {"measurement": "TGI", "setting": "[10]", "result": 18.5, "unit": "µM"}, {"measurement": "GI50", "setting": "[11]", "result": 1.45, "unit": "µM"}, {"measurement": "TGI", "setting": "[11]", "result": 2.99, "unit": "µM"}, {"measurement": "GI50", "setting": "[12]", "result": 1.04, "unit": "µM"}, {"measurement": "TGI", "setting": "[12]", "result": 2.21, "unit": "µM"}, {"measurement": "GI50", "setting": "[13]", "result": 1.01, "unit": "µM"}, {"measurement": "TGI", "setting": "[13]", "result": 2.39, "unit": "µM"}, {"measurement": "GI50", "setting": "[14]", "result": 2.05, "unit": "µM"}, {"measurement": "TGI", "setting": "[14]", "result": 5.74, "unit": "µM"}, {"measurement": "GI50", "setting": "[15]", "result": 1.8, "unit": "µM"}, {"measurement": "TGI", "setting": "[15]", "result": 11.8, "unit": "µM"}, {"measurement": "GI50", "setting": "[16]", "result": 16, "unit": "µM"}, {"measurement": "TGI", "setting": "[16]", "result": 68.6, "unit": "µM"}, {"measurement": "GI50", "setting": "[17]", "result": 1.61, "unit": "µM"}, {"measurement": "TGI", "setting": "[17]", "result": 3.28, "unit": "µM"}, {"measurement": "GI50", "setting": "[18]", "result": 2.24, "unit": "µM"}, {"measurement": "TGI", "setting": "[18]", "result": 8.6, "unit": "µM"}, {"measurement": "GI50", "setting": "[19]", "result": 1.35, "unit": "µM"}, {"measurement": "TGI", "setting": "[19]", "result": 4.41, "unit": "µM"}, {"measurement": "GI50", "setting": "[20]", "result": 1.33, "unit": "µM"}, {"measurement": "TGI", "setting": "[20]", "result": 3.29, "unit": "µM"}, {"measurement": "GI50", "setting": "[21]", "result": 1.24, "unit": "µM"}, {"measurement": "TGI", "setting": "[21]", "result": 2.48, "unit": "µM"}, {"measurement": "GI50", "setting": "[22]", "result": 1.81, "unit": "µM"}, {"measurement": "TGI", "setting": "[22]", "result": 4.64, "unit": "µM"}, {"measurement": "GI50", "setting": "[23]", "result": 3.19, "unit": "µM"}, {"measurement": "TGI", "setting": "[23]", "result": 14, "unit": "µM"}, {"measurement": "GI50", "setting": "[24]", "result": 1.58, "unit": "µM"}, {"measurement": "TGI", "setting": "[24]", "result": 5.22, "unit": "µM"}, {"measurement": "GI50", "setting": "[25]", "result": 2.45, "unit": "µM"}, {"measurement": "TGI", "setting": "[25]", "result": 6.75, "unit": "µM"}, {"measurement": "GI50", "setting": "[26]", "result": 2.06, "unit": "µM"}, {"measurement": "TGI", "setting": "[26]", "result": 7.14, "unit": "µM"}, {"measurement": "GI50", "setting": "[27]", "result": 1.39, "unit": "µM"}, {"measurement": "TGI", "setting": "[27]", "result": 2.87, "unit": "µM"}, {"measurement": "GI50", "setting": "[28]", "result": 2.17, "unit": "µM"}, {"measurement": "TGI", "setting": "[28]", "result": 4.71, "unit": "µM"}]}]}
